The text below walks through data of ChEMBL document CHEMBL1155164, “Sequencing and comparative genomic analysis of pK29, a 269-kilobase conjugative plasmid encoding CMY-8 and CTX-M-3 beta-lactamases in Klebsiella pneumoniae” (2007).

In brackets after ≈: the same amount, converted by molar mass.

What all share (format): functional
Assay [1] relates to Klebsiella pneumoniae. Description: Antibacterial activity against Klebsiella pneumoniae NK29 by broth microdilution test.
In assay [2] the test system is Escherichia coli. Description: Antibacterial activity against Escherichia coli J53 by broth microdilution test. For orientation: Dilution methods test growth across graded concentrations, often in twofold steps.
The test system of assay [3] is Escherichia coli. Description: Antibacterial activity against plasmid pK29 transconjugant Escherichia coli J53 by broth microdilution test.
Assay [4] concerns Klebsiella pneumoniae. Description: Antibacterial activity against Klebsiella pneumoniae NK29 by Etest.
Assay [5] relates to Escherichia coli. Description: Antibacterial activity against plasmid pK29 transconjugant Escherichia coli J53 by Etest.
Assay [6] has as its system Escherichia coli. Description: Antibacterial activity against Escherichia coli J53 by Etest.
The subject of assay [7] is Escherichia coli. Description: Antibacterial activity against plasmid pK29 transconjugant Escherichia coli J53 assessed as inhibition zone diameter by CLSI disk diffusion confirmatory test.
Assay [8] relates to Klebsiella pneumoniae. Description: Antibacterial activity against Klebsiella pneumoniae NK29 assessed as inhibition zone diameter by CLSI disk diffusion confirmatory test. A general note: In agar diffusion tests the substance spreads into inoculated agar from a disc or well.
In assay [9] the test system is Escherichia coli. The assay is described as follows: Antibacterial activity against Escherichia coli J53 assessed as inhibition zone diameter by CLSI disk diffusion confirmatory test.

For orientation: MIC means the lowest concentration found to suppress growth. A high value points to a less susceptible organism. As to `NC[C@H]1O[C@H](O[C@H]2[C@H](O)[C@@H](O[C@H]3O[C@H](CO)[C@@H](O)[C@H](N)[C@H]3O)[C@H](N)C[C@@H]2N)[C@H](O)[C@@H](O)[C@@H]1O` [KANAMYCIN], the MIC in the assay with Klebsiella pneumoniae [1] was 32 µg/mL (≈ 66 µM); with Escherichia coli [2], 8 µg/mL (≈ 16.5 µM); against Escherichia coli [3] it was 32 µg/mL (≈ 66 µM).

As to `CO/N=C(\C(=O)N[C@@H]1C(=O)N2C(C(=O)O)=C(CSc3nc(=O)c(O)nn3C)CS[C@H]12)c1csc(N)n1` [CEFTRIAXONE], the figures for the MIC in the assay with Klebsiella pneumoniae [4], in the assay on Escherichia coli [5] and with Escherichia coli [6] were 24 µg/mL (≈ 43.3 µM), 16 µg/mL (≈ 28.9 µM) and 0.19 µg/mL (≈ 0.343 µM), respectively.

Regarding `C[C@H]1[C@H](NC(=O)/C(=N\OC(C)(C)C(=O)O)c2csc(N)n2)C(=O)N1S(=O)(=O)O` [AZTREONAM], the MIC is 4 µg/mL (≈ 9.19 µM) in the assay with Klebsiella pneumoniae [4] and 2 µg/mL (≈ 4.59 µM) in the assay with Escherichia coli [5].

As for `CN(C)[C@@H]1C(O)=C(C(N)=O)C(=O)[C@@]2(O)C(O)=C3C(=O)c4c(O)cccc4[C@@](C)(O)[C@H]3C[C@@H]12` [TETRACYCLINE], the MIC with Klebsiella pneumoniae [4] was 8 µg/mL (≈ 18 µM); in the assay with Escherichia coli [5] it was 2 µg/mL (≈ 4.5 µM); against Escherichia coli [6], 2 µg/mL (≈ 4.5 µM).

In the case of `CO/N=C(\C(=O)N[C@@H]1C(=O)N2C(C(=O)O)=C(COC(C)=O)CS[C@H]12)c1csc(N)n1` [CEFOTAXIME], the “inhibition zone (IZ)” value in the assay on Escherichia coli [7] stood at 16 mm; in the assay with Klebsiella pneumoniae [8], 13 mm; in the assay on Escherichia coli [9], 31 mm. In addition, the MIC stood at 32 µg/mL (≈ 70.3 µM) against Klebsiella pneumoniae [4], 24 µg/mL (≈ 52.7 µM) in the assay on Escherichia coli [5] and 0.064 µg/mL (≈ 0.141 µM) with Escherichia coli [6].

`CO/N=C(\C(=O)N[C@@H]1C(=O)N2C(C(=O)[O-])=C(C[N+]3(C)CCCC3)CS[C@H]12)c1csc(N)n1` [CEFEPIME]: the values for the minimal inhibitory concentration (MIC) against Klebsiella pneumoniae [4], against Escherichia coli [5] and in the assay with Escherichia coli [6] were 2 µg/mL (≈ 4.16 µM), 1 µg/mL (≈ 2.08 µM) and 0.094 µg/mL (≈ 0.196 µM), respectively.

Compound `O=C(O)c1cn(C2CC2)c2cc(N3CCNCC3)c(F)cc2c1=O` [CIPROFLOXACIN] yielded an MIC in the assay with Klebsiella pneumoniae [4] of 0.047 µg/mL (≈ 0.142 µM).

`CC(C)(O/N=C(\C(=O)N[C@@H]1C(=O)N2C(C(=O)[O-])=C(C[n+]3ccccc3)CS[C@H]12)c1csc(N)n1)C(=O)O` [CEFTAZIDIME]: the “inhibition zone (IZ)” value in the assay with Escherichia coli [7] is 27 mm; with Klebsiella pneumoniae [8], 17 mm; with Escherichia coli [9], 33 mm. Moreover, the MIC came out at 16 µg/mL (≈ 29.3 µM) with Klebsiella pneumoniae [4], 1.5 µg/mL (≈ 2.74 µM) in the assay with Escherichia coli [5] and 0.19 µg/mL (≈ 0.348 µM) against Escherichia coli [6].

With `C[C@@H](O)[C@H]1C(=O)N2C(C(=O)O)=C(SCCNC=N)C[C@H]12` [IMIPENEM ANHYDROUS], the MIC against Klebsiella pneumoniae [4] and against Escherichia coli [5] was 0.25 µg/mL (≈ 0.835 µM) each time.

With `CO[C@@]1(NC(=O)Cc2cccs2)C(=O)N2C(C(=O)O)=C(COC(N)=O)CS[C@@H]21` [CEFOXITIN], the MIC against Klebsiella pneumoniae [4] was > 256 µg/mL; against Escherichia coli [5], > 256 µg/mL; against Escherichia coli [6], 4 µg/mL (≈ 9.36 µM).

On to `Cc1cc(NS(=O)(=O)c2ccc(N)cc2)no1` [SULFAMETHOXAZOLE], for which the minimal inhibitory concentration (MIC) was > 512 µg/mL against Klebsiella pneumoniae [1], ≤ 64 µg/mL against Escherichia coli [2] and > 512 µg/mL against Escherichia coli [3].

`O=C(N[C@H](CO)[C@H](O)c1ccc([N+](=O)[O-])cc1)C(Cl)Cl` [CHLORAMPHENICOL]: the MIC came out at 96 µg/mL (≈ 297 µM) against Klebsiella pneumoniae [4], 96 µg/mL (≈ 297 µM) against Escherichia coli [5] and 4 µg/mL (≈ 12.4 µM) in the assay on Escherichia coli [6].
